Measured values as given in US12492403B2, “Aptamers and the use thereof in the treatment of cancer” (FUNDACIÓN PARA LA INVESTIGACIÓN BIOMÉDICA DEL HOSPITAL …, priority 2018, dated 2025).

Tests used:
Format in all cases: cell-based, human
MCF7 cells [1] = experiment: MTT activity assay, aptamers transfected with Lipofectamine 2000
Description: (§1) FIG. 3. Effect of the aptamers on MTT activity of MCF7 and MDA-MB-231 cells. The cells were seeded in 96-well plates at a density of 10^4 cells/well. After 16-24 hours, they were transfected with aptamers apMNKQ1, apMNKQ2, apMNKQ3, and apMNKQ4 at 250 nM for 48 hours after which MTT activity assays were performed. The bars represent the mean±SEM of 3-6 independent experiments (*p<0.05, **p<0.01, and ***p<0.001 with respect to the control aptamer AT).
(§2) FIGS. 8A-8C. Effect of aptamer apMNKQ2 on MTT activity of breast cell lines. MCF7, MDA-MB-231, and MDA-MB-468 cells were seeded in 96-well plates at a density of 10^4 cells/well. […] The graphs represent the means±SEM of 3 independent experiments (*p<0.05, **p<0.01, and ***p<0.001 with respect to the control AT).
(§3) The Lipofectamine™ 2000 system (Invitrogen, USA) was used to treat cells with the different aptamers. To prepare the DNA-lipofectamine complex, lipofectamine and DNA were separately diluted in opti-MEM (Gibco, USA) and left to incubate at room temperature for 5 minutes. They were then mixed to form lipofectamine-DNA complexes and incubated for 20 minutes at room temperature. Finally, the mixture was added to the cells that had been washed twice with antibiotic-free medium to prevent the interference thereof with lipofectamine. The cells were incubated at 37° C. for 5 hours, after which the reagent was removed and a complete medium was added.
(§4) MTT activity. The cells were seeded in 96-well plates and after having been transfected, the culture medium was removed and 100 μL/well of MTT at 1 mg/ml in culture medium were added. The plates were incubated for 90 minutes in an incubator with a moisture-saturated environment at 37° C. and 5% CO2/[…] and 100 μL/well of a lysis solution (10% SDS and 10 mM HCl) were added for dissolving the crystals. After 48 hours, the reduction of MTT was determined by means of spectrophotometry in Infinite F200 (TECAN, Switzerland) at 540 nm.
(§5) The results were expressed as the percentage of viability with respect to the control or in absorbance units.

MDA-MB-231 cells [2] = experiment: as above
Description: as §1, §2, §3, §4, §5

MCF7 cells [3] = experiment: Transwell migration assay; settings: MCF7, 150 nM, 24 hours migration
Description: (§6) FIGS. 13A, 13B and 13C. Effect of aptamer apMNKQ2 on the migration and invasion of breast cell lines. The three lines of study were seeded in 6-well plates at a density of 2.5×10^5 cells/well and transfected at 24 hours with apMNKQ2 at the established working concentrations. The cell lines were deprived of serum after 6 hours and collected and re-seeded (4×10^4 cells/well) after 24 hours in a transwell […], in order to perform migration and invasion assays, respectively. At 24 hours, the membranes of the transwell are stained with Hoechst and cells that have gone through the membranes are quantified using fluorescence microscopy (FIG. 13A). The boxes (FIGS. 13B and 13C) represent the mean±the maximum and minimum of 4-5 independent experiments (*p<0.05, **p<0.01, and ***p<0.001 with respect to the control aptamer AT).
(§7) Cell migration and invasion assays were performed using transwell (Corning, USA). The cells, previously transfected and incubated for 16 hours, were deprived of serum for 18 hours. After that time, they were collected, counted, and reseeded 4×10^4 cells in 300 μl of a serum-free complete medium inside the transwell (migration) or a transwell on which a layer of 100 μL of Matrigel (Corning, USA) (invasion) had previously been polymerized. […] Finally, two washes in PBS were performed, and 5 photographs of each membrane of the transwell were taken using a fluorescence microscope (Olympus IX70). The number of cells was analyzed using the imageJ program.
(§8) To analyze the effect of the aptamer on cell migration, experiments were carried out using transwells instead of the wound healing technique. […] At 18 hours, 40,000 cells are collected, counted, and seeded in small “baskets” in a serum-free medium, and these baskets are immersed in the well of the plate with complete serum, such that the serum acts as a chemoattractant and the cells migrate from the basket to the well, going through the membrane of the transwell. […]

MDA-MB-231 cells [4] = experiment: Transwell migration assay; settings: MDA-MB-231, 400 nM, 24 hours migration
Description: as §6, §7, §8

MDA-MB-468 cells = experiment: Transwell migration assay; settings: MDA-MB-468, 50 nM, 24 hours migration
Description: as §6, §7, §8

5′TGGGGTGGGCGGGCGGGGGTGGGGGTGGT-3′ (DNA, backbone and methylation of C not given here; further chemistry not fully specified) [apMNKQ2]
GI50 (MCF7 cells [1]; MCF7, MTT activity at 48 hours, 0 to 500 nM): 42 nM
cell proliferation (MTT activity) reduced to (MCF7 cells [1]; MCF7, aptamer 250 nM, 48 hours after transfection): 51%
GI50 (MDA-MB-231 cells [2]; MDA-MB-231, MTT activity at 48 hours, 0 to 500 nM): 144 nM
cell proliferation (MTT activity) reduced to (MDA-MB-231 cells [2]; MDA-MB-231, aptamer 250 nM, 48 hours after transfection): 36%
inhibition of migration (transwell) (MCF7 cells [3]): in a statistically significant manner
inhibition of migration (transwell) (MDA-MB-231 cells [4]): in a statistically significant manner
inhibition of migration (transwell) (MDA-MB-468 cells): capable of inhibiting migration
